Source: US20190298694A1, “Use Of Carbamate Compound For Preventing Or Treating Fibromyalgia Or Functional Syndrome Associated With Fibromyalgia” (SK BIOPHARMACEUTICALS CO., LTD., priority 2016, published 2019)
Marks after values point to notes of the source that are not given here.

Test system: mechanical allodynia induced by injection of acidic saline into gastrocnemius muscle
Assay: Pain suppression in animal model of fibromyalgia: mechanical allodynia induced by repeated intramuscular acidic saline, paw withdrawal threshold by von Frey filaments (up-down method)
Assay type: in vivo, rats (Sprague-Dawley)
Conditions: for Area under the curve of the paw withdrawal threshold curve over time, compared with the vehicle group: ip
Excerpt: Musculoskeletal pain is a major feature of fibromyalgia. A model that is linked to musculoskeletal pain in humans has been developed by Sluka K A, which model is characterized by mechanical sensitization induced by repeated intramuscular injections of acidic saline.
This experiment evaluated the effect of the test compound on persistent mechanical allodynia, which may well represent muscle pain or tenderness observed in patients with fibromyalgia. Repeated injections of acidic saline into the gastrocnemius muscle of rats lead to mechanical allodynia due to central sensitization (Sluka K A et. al., Unilateral intramuscular injections of acidic saline produce a bilateral, long-lasting hyperalgesia, Muscle Nerve. 2001).
Male rats (Sprague-Dawley, 150-200 g, 6 weeks old, Orient Bio Co., Ltd.) were purchased and subjected to acclimatization for more than 1 week in an animal chamber. The experimental animals were maintained under conditions of light-and-darkness cycle of 12 hours, a temperature of 22 to 25° C., a relative humidity of 40 to 60%, and free access to water and food.
Mechanical allodynia was assessed by measuring the paw withdrawal threshold of the rat right hind paw using Dixon's “up-down method” (Chaplan et. al., Quantitative assessment of tactile allodynia in the rat paw. J Neurosci Methods, 1994; Dixon W J, Efficient analysis of experimental observations, Annu Rev Pharmacol Toxicol. 1980). First, the rats were placed in an acrylic box (13×25×13 cm3) located on a wire mesh installed at a height of about 35 cm from the floor and stabilized for more than 20 minutes. […] von Frey filaments with various bending forces (0.2, 0.4, 0.6, 1.0, 2.0, 4.0, 6.0, 8.0, 15.0 g) were used. Starting with a filament of 2.0 g, bending force was applied perpendicular to the sole surface. In the case of no withdrawal (avoidance response), the next higher bending force filament was applied, or, in the case of withdrawal (avoidance response), the next lower bending force filament was applied. In order to obtain at least six (6) response results, the application of filaments was proceeded four (4) more times after showing the change in withdrawal.
The baseline withdrawal (avoidance response) threshold for mechanical stimulation on the right hind paw of rats was measured. 100 μl of preservative-free acidic saline (0.9% sodium chloride, pH 4.0) was intramuscularly injected into the right gastrocnemius muscle of the rats. After 5 days, the acidic saline was intramuscularly injected again into the same region by the same method. At 7 or 8 days after the second administration of acidic saline, induction of mechanical allodynia was confirmed by measuring withdrawal (avoidance response) thresholds to mechanical stimulation on the right hind paw, and rats with a mechanical withdrawal (avoidance response) threshold of less than 4.5 g were used for the evaluation of the test drug (Sluka K A et. al., Unilateral intramuscular injections of acidic saline produce a bilateral, long-lasting hyperalgesia, Muscle Nerve. 2001).
The test compound was prepared as a solution using 30% PEG 400 and 70% distilled water on a volume basis. Each solution was administered intraperitoneally to the rats at a volume of 3 ml per kg of rat. Withdrawal (avoidance response) thresholds to mechanical stimulation were measured at 30 minutes, 1 hour, 2 hours and 4 hours after drug administration.
[% MPE=(threshold over time after drug treatment−threshold at 0 hour)/(threshold of normal group−threshold at 0 hour)×100]
The vehicle or the test compound was administered intraperitoneally at doses of 5, 10 and 20 mg/kg, and withdrawal thresholds to mechanical stimulation were measured at 30 minutes, 1 hour, 2 hours and 4 hours.

SMILES: NC(=O)O[C@@H](Cn1ncnn1)c1ccccc1Cl [Test compound]
- Withdrawal threshold of the right hind paw to mechanical stimulation (mean) (5 mg/kg ip group, 0 h (pre-dose, after acidic saline)): 2.97 g
- Withdrawal threshold of the right hind paw to mechanical stimulation (mean) (5 mg/kg ip group, baseline, prior to first injection of acidic saline (pre-dose)): 13.69 g
- Effect (%) (% MPE, percent of maximum possible effect) (5 mg/kg ip, 30 min): 10.8%
- Withdrawal threshold of the right hind paw to mechanical stimulation (mean) (5 mg/kg ip, 30 min after administration): 4.02 g
- Effect (%) (% MPE, percent of maximum possible effect) (5 mg/kg ip, 1 h): 35.6%
- Withdrawal threshold of the right hind paw to mechanical stimulation (mean) (5 mg/kg ip, 1 h after administration): 6.41^d g
- Effect (%) (% MPE, percent of maximum possible effect) (5 mg/kg ip, 2 h): 38.3%
- Withdrawal threshold of the right hind paw to mechanical stimulation (mean) (5 mg/kg ip, 2 h after administration): 6.67^e g
- Effect (%) (% MPE, percent of maximum possible effect) (5 mg/kg ip, 4 h): 10.7%
- Withdrawal threshold of the right hind paw to mechanical stimulation (mean) (5 mg/kg ip, 4 h after administration): 4.01 g
- Withdrawal threshold of the right hind paw to mechanical stimulation (mean) (10 mg/kg ip group, 0 h (pre-dose, after acidic saline)): 3.20 g
- Withdrawal threshold of the right hind paw to mechanical stimulation (mean) (10 mg/kg ip group, baseline, prior to first injection of acidic saline (pre-dose)): 14.29 g
- Effect (%) (% MPE, percent of maximum possible effect) (10 mg/kg ip, 30 min): 11.4%
- Withdrawal threshold of the right hind paw to mechanical stimulation (mean) (10 mg/kg ip, 30 min after administration): 4.27 g
- Effect (%) (% MPE, percent of maximum possible effect) (10 mg/kg ip, 1 h): 47.5%
- Withdrawal threshold of the right hind paw to mechanical stimulation (mean) (10 mg/kg ip, 1 h after administration): 7.68^e g
- Effect (%) (% MPE, percent of maximum possible effect) (10 mg/kg ip, 2 h): 43.5%
- Withdrawal threshold of the right hind paw to mechanical stimulation (mean) (10 mg/kg ip, 2 h after administration): 7.30^e g
- Effect (%) (% MPE, percent of maximum possible effect) (10 mg/kg ip, 4 h): 11.3%
- Withdrawal threshold of the right hind paw to mechanical stimulation (mean) (10 mg/kg ip, 4 h after administration): 4.26 g
- Area under the curve of the paw withdrawal threshold curve over time, compared with the vehicle group (10 mg/kg): statistically significant effects
- Withdrawal threshold of the right hind paw to mechanical stimulation (mean) (20 mg/kg ip group, 0 h (pre-dose, after acidic saline)): 2.95 g
- Withdrawal threshold of the right hind paw to mechanical stimulation (mean) (20 mg/kg ip group, baseline, prior to first injection of acidic saline (pre-dose)): 13.83 g
- Effect (%) (% MPE, percent of maximum possible effect) (20 mg/kg ip, 30 min): 44.6%
- Withdrawal threshold of the right hind paw to mechanical stimulation (mean) (20 mg/kg ip, 30 min after administration): 7.28^d g
- Effect (%) (% MPE, percent of maximum possible effect) (20 mg/kg ip, 1 h): 73.2%
- Withdrawal threshold of the right hind paw to mechanical stimulation (mean) (20 mg/kg ip, 1 h after administration): 10.04^e g
- Effect (%) (% MPE, percent of maximum possible effect) (20 mg/kg ip, 2 h): 82.2%
- Withdrawal threshold of the right hind paw to mechanical stimulation (mean) (20 mg/kg ip, 2 h after administration): 10.92^e g
- Effect (%) (% MPE, percent of maximum possible effect) (20 mg/kg ip, 4 h): 16.2%
- Withdrawal threshold of the right hind paw to mechanical stimulation (mean) (20 mg/kg ip, 4 h after administration): 4.52 g
- Area under the curve of the paw withdrawal threshold curve over time, compared with the vehicle group (20 mg/kg): statistically significant effects
- Area under the curve of the paw withdrawal threshold curve over time (5, 10 and 20 mg/kg ip, dose dependence): dose-dependent effect
- Muscle mechanical hyperalgesia in the chronic myalgia model (dose-dependent manner): significantly reduces
- Mechanical allodynia induced by repeated injections of acidic saline (intraperitoneally at doses of 5, 10 and 20 mg/kg): significantly inhibited
- Effect in the fibromyalgia disease model (overall conclusion): significant effect
